In the NIST ThermoML archive (doi:10.1016/j.tca.2006.08.007):
Numbers after ± are expanded uncertainties.

Columns and labels:
[1] = refractive index (Na D-line) (dimensionless); conditions: 293.15 K; 101.33 kPa; Liquid; refractometer
[2] = 293.15 K; 101.33 kPa; Liquid; Vibrating tube method

Structure (SMILES)	refractive index [1]	mass density [2] [kg/m3]
CCCCCO [pentan-1-ol]	1.4098 ± 0.0003	815.1 ± 0.5
CC#N [acetonitrile]	1.3442 ± 0.0001	782.5 ± 0.2
CCCCCCO [hexan-1-ol]	1.418 ± 0.0002	818.7 ± 0.3
